Experimental findings from ChEMBL document CHEMBL1201862, “PubChem BioAssay data set” (2004) are described below.

Broadly, the IC50 is the concentration at which inhibition is half-maximal. The CC50 is the concentration that lowers cell viability or growth by half. A word on the EC50: it is the concentration needed to bring the measured effect to its halfway point. For orientation: AC50 means the midpoint of the concentration-response curve, whichever way the signal moves.

The source made the active and inactive calls. Bounds are passed on as bounds.

Experiment [1] is described as follows: HEp-2 cell cytotoxicity, dose response, cytotoxicity control for RSV inhibitor project, HTS (AID 2410). The experiment is classed as functional. As to conditions: human respiratory syncytial virus.
Experiment [2] addresses Epstein-Barr nuclear antigen 1 (Epstein-Barr virus (strain B95-8) (HHV-4) (Human herpesvirus 4), UniProt P03211). Put plainly: EBNA-1 inhibitors, dose response, biochemical, fluorescence polarization, 1536-well (AID 2381).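 Also: fluorescence polarization of a Cy5 DNA probe bound by EBNA-1 protein.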 The arrangement: species or system human gammaherpesvirus 4.
Experiment [3] deals with T1, SUMO-activating enzyme (Homo sapiens, UniProt Q9UBT2). Description: inhibitors of in vitro SUMOylation cascade, primary screen, biochemical, HTRF, uHTS (AID 2006). The experiment is classed as protein-complex assay. In general terms: TR-FRET usually uses a lanthanide donor and a delayed reading to cut background.
T1 sequence (Q9UBE0 whole entry): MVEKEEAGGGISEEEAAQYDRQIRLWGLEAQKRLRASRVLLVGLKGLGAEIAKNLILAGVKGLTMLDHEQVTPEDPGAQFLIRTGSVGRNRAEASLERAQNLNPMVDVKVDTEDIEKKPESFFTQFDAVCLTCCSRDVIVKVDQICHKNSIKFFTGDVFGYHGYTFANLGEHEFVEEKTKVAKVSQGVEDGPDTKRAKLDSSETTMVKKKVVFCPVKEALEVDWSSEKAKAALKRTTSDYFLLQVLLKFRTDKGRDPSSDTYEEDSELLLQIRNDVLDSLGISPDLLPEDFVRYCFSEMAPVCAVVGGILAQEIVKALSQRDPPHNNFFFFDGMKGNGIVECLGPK
T1 sequence (Q9UBT2 whole entry): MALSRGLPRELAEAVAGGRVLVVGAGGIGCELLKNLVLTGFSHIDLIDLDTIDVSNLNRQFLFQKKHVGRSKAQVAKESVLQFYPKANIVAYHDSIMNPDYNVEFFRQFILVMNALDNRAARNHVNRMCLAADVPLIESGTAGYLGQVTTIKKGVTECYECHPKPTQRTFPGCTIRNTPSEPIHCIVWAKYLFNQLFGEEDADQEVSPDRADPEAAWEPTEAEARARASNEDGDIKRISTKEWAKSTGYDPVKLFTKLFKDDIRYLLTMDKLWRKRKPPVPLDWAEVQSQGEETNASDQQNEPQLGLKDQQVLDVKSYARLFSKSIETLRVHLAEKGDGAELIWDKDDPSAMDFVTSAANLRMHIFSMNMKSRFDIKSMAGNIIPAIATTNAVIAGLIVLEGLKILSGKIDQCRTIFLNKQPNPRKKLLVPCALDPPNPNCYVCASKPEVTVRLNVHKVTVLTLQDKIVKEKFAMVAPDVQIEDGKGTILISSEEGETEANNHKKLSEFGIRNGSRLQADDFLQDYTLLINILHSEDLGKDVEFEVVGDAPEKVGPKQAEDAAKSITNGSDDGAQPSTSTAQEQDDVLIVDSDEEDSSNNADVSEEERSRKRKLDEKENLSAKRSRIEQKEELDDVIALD
The target in experiment [4] is T1, SUMO-activating enzyme. Put plainly: SUMOylation inhibitor hit validation, confirmation, SUMOylation inhibitor project, biochemical, AlphaScreen (AID 2018). It is filed as functional. (Alpha assays give light when donor and acceptor beads are brought close together.)
Experiment [5] has as its target Lytic switch protein BZLF1 (Epstein-Barr virus (strain B95-8) (HHV-4) (Human herpesvirus 4), UniProt P03206). Description: EBV ZTA inhibitors, dose response, counter-screen for EBNA-1 inhibitor project, biochemical, fluorescence polarization, Epstein-Barr virus, 1536-well (AID 2377).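 Also: fluorescence polarization of Cy5-labelled ZRE DNA probe bound by purified Zta.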 More on the design: species or system human gammaherpesvirus 4. A general note: Counterscreens check selectivity or assay interference.

The test system of another experiment is Streptococcus. Put plainly: Streptococcus pyogenes growth inhibition counter-screen, dose response, counter-screen for streptokinase expression inhibitor project, luminescence, BacTiter-Glo, strain UMAA2166 (AID 2477). The experiment is classed as functional, organism-based.
In the next experiment the target is T2, Streptokinase A (Streptococcus pyogenes serotype M1, UniProt P10520).
T2 sequence (P10520 whole entry): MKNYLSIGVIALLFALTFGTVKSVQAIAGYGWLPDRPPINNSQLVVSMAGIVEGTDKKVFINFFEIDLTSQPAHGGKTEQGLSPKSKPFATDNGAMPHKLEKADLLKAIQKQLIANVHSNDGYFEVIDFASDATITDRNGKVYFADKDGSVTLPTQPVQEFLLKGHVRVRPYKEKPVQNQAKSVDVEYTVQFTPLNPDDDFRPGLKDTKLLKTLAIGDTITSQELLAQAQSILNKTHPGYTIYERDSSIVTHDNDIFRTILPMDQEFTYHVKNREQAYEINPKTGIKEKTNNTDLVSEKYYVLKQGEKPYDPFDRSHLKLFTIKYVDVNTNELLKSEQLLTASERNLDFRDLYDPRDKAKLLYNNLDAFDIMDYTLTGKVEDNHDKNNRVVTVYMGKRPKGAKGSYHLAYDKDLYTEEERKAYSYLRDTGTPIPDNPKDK
Put plainly: Absorbance Microorganism-Based Dose Response Follow up to Identify Inhibitors of Streptokinase Expression. [Related pubchem assays: 1677 (Project Summary), 1915, 1914, 1902 (Retest at Dose), 1900 (Counter Screen), 1662 (Primary HTS)]. The experiment is classed as functional, Streptococcus pyogenes M1 GAS.

Another experiment has as its target T3, Bcl-2-like protein 10 (Homo sapiens, UniProt Q9HD36).
T3 sequence (Q9HD36 whole entry): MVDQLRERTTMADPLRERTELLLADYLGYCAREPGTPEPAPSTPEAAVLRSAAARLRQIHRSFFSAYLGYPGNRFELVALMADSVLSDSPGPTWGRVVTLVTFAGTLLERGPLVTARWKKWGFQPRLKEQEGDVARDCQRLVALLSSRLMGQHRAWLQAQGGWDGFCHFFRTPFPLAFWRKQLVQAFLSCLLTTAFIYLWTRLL
Put plainly: Biochemical TR3 FP assay of Bcl-B inhibitor potency, EC50 (AID 1243). The experiment is classed as functional.

A further experiment addresses T4, Caspase-6 (Homo sapiens, UniProt P55212).
T4 sequence (P55212 whole entry): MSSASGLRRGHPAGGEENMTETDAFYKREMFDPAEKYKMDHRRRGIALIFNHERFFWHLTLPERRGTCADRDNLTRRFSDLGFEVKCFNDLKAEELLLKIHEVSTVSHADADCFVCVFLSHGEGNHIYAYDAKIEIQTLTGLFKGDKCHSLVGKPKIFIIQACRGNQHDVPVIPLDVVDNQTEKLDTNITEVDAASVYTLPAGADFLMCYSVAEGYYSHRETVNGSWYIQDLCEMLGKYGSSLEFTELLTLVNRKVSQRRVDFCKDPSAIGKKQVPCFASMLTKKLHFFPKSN
Description: human caspase-6 inhibitors, dose response, biochemical, VEID-R110 fluorescence, cherry-pick (AID 720632).

Experiment [6] concerns the target Induced myeloid leukemia cell differentiation protein Mcl-1 (Homo sapiens, UniProt Q07820). Put plainly: MCL1-BIM BH3 interaction inhibitors, dose response, biochemical, fluorescence polarization, BIM-BH3 peptide, 1536-well (AID 2217).
A further experiment concerns the target Bcl-2-like protein 1 (Homo sapiens, UniProt Q07817). Put plainly: BCL-XL inhibitors, dose response, selectivity assay for MCL1 inhibitor project, biochemical, fluorescence polarization, 1536-well (AID 2218).
For a further experiment, the target named is Genome polyprotein (dengue virus type 2, UniProt P29990). Description: Dengue-2 NS5 methyltransferase inhibitors, primary screen, biochemical, confirmation dose response (AID 588689). The experiment is classed as functional.
Genome polyprotein, sequence (P29990 2492-3391 limits assumed): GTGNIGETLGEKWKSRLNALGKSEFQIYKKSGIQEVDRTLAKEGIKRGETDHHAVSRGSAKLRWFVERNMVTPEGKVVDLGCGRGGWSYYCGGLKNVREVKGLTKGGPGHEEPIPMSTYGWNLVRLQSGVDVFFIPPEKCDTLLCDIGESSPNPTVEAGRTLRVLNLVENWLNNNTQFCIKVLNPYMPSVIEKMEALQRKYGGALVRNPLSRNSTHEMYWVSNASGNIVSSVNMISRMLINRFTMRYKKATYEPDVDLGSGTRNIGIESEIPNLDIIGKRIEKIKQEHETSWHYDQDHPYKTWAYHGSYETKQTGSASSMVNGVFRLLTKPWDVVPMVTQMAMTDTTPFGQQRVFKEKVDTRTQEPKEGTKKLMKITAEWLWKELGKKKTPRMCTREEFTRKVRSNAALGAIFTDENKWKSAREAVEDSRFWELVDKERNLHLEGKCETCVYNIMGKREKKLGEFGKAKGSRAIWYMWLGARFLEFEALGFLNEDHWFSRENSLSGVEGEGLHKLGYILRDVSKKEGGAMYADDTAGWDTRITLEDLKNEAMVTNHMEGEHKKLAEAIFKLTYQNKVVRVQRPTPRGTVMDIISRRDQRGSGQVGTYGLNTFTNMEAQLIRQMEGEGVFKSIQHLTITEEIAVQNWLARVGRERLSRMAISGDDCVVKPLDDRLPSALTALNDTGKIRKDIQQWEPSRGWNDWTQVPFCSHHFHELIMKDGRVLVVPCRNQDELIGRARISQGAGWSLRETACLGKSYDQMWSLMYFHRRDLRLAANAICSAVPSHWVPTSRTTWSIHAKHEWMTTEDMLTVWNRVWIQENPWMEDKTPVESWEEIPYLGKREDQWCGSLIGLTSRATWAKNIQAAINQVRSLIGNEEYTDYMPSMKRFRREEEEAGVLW
The target in experiment [7] is 72 kDa type IV collagenase (Homo sapiens, UniProt P08253). Description: Dose Response validation of uHTS RPN11 inhibitor hits using a MMP-2 Fluorescence assay. The experiment is classed as functional.
Another experiment addresses T5, Aminopeptidase N (Plasmodium falciparum FcB1/Columbia, UniProt O96935).
T5 sequence (O96935 whole entry): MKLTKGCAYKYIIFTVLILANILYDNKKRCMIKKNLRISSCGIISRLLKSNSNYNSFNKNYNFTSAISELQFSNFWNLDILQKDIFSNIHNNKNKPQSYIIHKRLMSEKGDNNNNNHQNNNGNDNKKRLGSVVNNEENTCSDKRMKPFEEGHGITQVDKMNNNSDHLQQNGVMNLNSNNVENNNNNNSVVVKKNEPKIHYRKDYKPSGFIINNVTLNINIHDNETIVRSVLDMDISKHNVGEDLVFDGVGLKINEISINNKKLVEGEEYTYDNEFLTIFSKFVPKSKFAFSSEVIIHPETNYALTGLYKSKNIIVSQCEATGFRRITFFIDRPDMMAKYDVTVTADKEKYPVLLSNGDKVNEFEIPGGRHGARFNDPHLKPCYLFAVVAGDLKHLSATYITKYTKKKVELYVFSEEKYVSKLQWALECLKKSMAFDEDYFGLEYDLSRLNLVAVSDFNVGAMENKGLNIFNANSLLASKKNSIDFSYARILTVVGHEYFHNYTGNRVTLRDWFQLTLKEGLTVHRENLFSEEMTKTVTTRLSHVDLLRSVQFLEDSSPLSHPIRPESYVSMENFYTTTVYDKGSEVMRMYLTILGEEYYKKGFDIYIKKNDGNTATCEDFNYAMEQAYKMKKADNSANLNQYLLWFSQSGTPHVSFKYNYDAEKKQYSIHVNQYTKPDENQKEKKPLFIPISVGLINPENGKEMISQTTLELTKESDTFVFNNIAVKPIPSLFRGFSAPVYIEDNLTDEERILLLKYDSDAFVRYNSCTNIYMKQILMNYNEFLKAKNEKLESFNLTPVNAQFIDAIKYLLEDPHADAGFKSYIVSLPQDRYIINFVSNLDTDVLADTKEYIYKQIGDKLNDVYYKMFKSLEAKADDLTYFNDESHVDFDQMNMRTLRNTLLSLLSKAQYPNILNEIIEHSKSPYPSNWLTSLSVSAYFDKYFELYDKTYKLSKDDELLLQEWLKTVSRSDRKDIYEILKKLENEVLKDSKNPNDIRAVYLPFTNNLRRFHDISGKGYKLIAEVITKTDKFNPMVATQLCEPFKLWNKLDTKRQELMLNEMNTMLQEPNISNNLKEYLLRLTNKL
Put plainly: P. falciparum M1AAP inhibitors, biochemical, fluorogenic H-Leu-NHMec substrate, 1536-well (AID 1445). The arrangement: species or system Plasmodium falciparum 3D7, 3D7.

Experiment [8] addresses FAD-linked sulfhydryl oxidase ALR (Homo sapiens, UniProt P55789). Description: inhibitors of human ALR sulfhydryl oxidase, dose response, biochemical, H2O2 detection, luminescence, cherry-pick (AID 493248).
The nature of experiment [9]: enhancers of respiration in Yfh1-depleted yeast, dose response, Friedreich's ataxia, plus single-dose screen (AID 1465).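 Also: yeast depleted of Yfh1p frataxin homolog grown on glycerol needing respiration; WST-1 tetrazolium dye reduction as measure of cellular dehydrogenase metabolic activity.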 It is filed as functional.
A further experiment addresses Prothrombin (Bos taurus, UniProt P00735). Description: thrombin inhibition, dose response, biochemical, fluorescence polarization, uHTS hits (AID 602369). The experiment is classed as functional.
The target in experiment [10] is 26S proteasome non-ATPase regulatory subunit 14 (Homo sapiens, UniProt O00487). Put plainly: inhibition of proteasome subunit RPN11 – biochemical, fluorescence polarization, uHTS hits, confirmation (AID 602368). It is filed as functional.
26S proteasome non-ATPase regulatory subunit 14, sequence (O00487 whole entry): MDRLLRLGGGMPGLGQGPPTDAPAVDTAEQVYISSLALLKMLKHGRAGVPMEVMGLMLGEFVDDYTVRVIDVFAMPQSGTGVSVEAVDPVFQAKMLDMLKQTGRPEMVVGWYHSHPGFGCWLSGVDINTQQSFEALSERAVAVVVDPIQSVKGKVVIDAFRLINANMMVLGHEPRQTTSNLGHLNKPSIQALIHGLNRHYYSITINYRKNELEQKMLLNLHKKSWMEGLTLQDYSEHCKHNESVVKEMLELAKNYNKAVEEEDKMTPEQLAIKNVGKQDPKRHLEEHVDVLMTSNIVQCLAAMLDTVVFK
The target of another experiment is Ion channel NompC (Danio rerio, UniProt Q7T1G6). Description: Fluorescence counterscreen assay for TRPML3 agonists: dose response cell-based high-throughput screening assay to identify agonists of the transient receptor potential channel N1 (TRPN1). [Related pubchem assays: 1526, 1424, 1448 ]. It is filed as functional.
Ion channel NompC, sequence (Q7T1G6 whole entry): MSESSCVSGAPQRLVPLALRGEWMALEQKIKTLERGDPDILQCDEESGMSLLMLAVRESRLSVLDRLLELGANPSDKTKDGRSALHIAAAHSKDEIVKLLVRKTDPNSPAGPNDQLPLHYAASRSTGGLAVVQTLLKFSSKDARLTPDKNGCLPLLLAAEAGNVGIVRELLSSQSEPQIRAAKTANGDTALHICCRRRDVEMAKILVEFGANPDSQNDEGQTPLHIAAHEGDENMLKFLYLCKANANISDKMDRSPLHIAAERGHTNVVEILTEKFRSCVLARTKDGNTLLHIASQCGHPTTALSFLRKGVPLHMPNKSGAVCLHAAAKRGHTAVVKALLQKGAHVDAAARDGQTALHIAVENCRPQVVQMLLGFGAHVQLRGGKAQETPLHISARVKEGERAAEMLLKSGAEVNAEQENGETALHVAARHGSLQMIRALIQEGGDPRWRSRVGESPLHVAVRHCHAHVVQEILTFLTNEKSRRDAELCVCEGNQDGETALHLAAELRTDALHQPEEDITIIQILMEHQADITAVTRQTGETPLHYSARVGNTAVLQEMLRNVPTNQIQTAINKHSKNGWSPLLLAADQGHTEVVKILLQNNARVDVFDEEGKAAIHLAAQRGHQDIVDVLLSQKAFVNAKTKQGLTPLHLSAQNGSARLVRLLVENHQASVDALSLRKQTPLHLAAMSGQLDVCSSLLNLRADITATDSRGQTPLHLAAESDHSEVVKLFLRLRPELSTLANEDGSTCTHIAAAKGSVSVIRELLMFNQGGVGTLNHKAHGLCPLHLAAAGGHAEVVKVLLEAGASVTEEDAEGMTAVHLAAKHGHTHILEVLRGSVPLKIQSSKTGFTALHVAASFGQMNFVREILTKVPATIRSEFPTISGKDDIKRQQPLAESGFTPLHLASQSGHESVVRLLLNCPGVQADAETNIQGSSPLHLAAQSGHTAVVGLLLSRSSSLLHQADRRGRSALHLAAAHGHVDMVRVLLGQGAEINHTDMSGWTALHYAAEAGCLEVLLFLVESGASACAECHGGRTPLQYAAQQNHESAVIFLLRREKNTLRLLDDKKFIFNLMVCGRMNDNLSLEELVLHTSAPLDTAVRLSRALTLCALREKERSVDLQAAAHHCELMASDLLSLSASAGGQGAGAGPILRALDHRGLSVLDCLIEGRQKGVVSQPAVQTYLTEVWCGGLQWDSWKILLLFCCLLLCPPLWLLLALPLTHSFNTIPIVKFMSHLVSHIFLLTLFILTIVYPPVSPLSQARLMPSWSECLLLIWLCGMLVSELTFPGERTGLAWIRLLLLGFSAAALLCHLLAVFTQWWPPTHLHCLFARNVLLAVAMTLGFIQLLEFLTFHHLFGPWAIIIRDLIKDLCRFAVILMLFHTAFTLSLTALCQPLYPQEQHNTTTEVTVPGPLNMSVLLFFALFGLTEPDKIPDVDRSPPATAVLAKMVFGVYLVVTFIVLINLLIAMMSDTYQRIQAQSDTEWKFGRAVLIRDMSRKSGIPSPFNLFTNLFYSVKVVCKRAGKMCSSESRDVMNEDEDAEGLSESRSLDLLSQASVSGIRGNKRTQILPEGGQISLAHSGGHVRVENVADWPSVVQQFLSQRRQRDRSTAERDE
Another experiment concerns the target Mucolipin-3 (Homo sapiens, UniProt Q8TDD5). Put plainly: Dose response cell-based high-throughput screening assay for agonists of the transient receptor potential channel ML3 (TRPML3). [Related pubchem assays: 1526, 1424, 1448 ]. It is filed as functional.

Mucolipin-3, sequence (Q8TDD5 whole entry): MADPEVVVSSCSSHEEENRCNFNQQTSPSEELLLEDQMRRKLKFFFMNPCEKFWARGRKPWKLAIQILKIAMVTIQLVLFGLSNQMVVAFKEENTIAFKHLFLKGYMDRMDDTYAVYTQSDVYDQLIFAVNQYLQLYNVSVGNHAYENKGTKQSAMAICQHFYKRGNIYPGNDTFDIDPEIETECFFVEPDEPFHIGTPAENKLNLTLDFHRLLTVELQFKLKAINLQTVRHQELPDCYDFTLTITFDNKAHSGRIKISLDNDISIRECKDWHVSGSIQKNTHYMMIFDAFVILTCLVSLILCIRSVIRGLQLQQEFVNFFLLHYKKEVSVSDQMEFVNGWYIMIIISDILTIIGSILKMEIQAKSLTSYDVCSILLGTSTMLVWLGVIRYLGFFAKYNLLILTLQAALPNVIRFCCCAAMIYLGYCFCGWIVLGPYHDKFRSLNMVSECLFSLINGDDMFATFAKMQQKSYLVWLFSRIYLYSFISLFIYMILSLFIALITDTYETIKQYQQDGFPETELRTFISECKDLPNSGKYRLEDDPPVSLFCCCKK
FAD-linked sulfhydryl oxidase ALR, sequence (P55789 whole entry): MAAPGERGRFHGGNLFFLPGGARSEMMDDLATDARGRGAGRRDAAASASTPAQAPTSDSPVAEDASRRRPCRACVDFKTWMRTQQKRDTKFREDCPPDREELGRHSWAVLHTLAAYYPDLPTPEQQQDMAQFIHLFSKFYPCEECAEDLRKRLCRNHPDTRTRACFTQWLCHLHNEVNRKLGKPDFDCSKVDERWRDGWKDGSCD
Induced myeloid leukemia cell differentiation protein Mcl-1, sequence (Q07820 whole entry): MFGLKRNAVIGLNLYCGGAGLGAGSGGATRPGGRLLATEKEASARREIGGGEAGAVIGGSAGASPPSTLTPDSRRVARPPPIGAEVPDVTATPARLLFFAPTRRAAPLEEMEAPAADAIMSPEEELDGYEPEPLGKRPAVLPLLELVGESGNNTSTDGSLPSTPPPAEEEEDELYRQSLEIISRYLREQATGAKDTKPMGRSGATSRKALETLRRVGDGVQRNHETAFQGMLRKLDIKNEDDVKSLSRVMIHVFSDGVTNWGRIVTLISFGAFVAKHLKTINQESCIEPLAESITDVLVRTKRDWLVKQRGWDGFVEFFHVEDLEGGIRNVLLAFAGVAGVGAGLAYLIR

Regarding `CCn1nc(C)c(CN2CCCC(CO)(Cc3ccccc3)C2)c1C` (stereo unspecified), in “cells”, the IC50 was 42.9 µM (active). Moreover, the CC50 in experiment [1] was > 50 µM (active).
For the compound `COc1ccccc1C(=O)Nc1ccc(-c2nnn(CC(=O)NCc3ccco3)n2)cc1`, the IC50 was > 0.608 µM (active) in [2], 11.8 µM (active) at SUMO-activating enzyme [3], 27.2 µM (active) on SUMO-activating enzyme [4] and > 111 µM (not active) in [5].
For `N#Cc1cc(NC(=O)c2ccc(Cl)cc2)ccc1Sc1ccccc1`, the values for the 50% effective concentration (EC50) in the experiment with Streptococcus and at Streptokinase A were 98.8 µM (active) and 3.25 µM (active), respectively.
`O=C(O)C1C2CC=CC2c2cc(Oc3ccccc3)cc3c2N1CC1CC=CC31` (stereo unspecified): the EC50 on Bcl-2-like protein 10 is 4.13 µM (active).
For `O=C(O)CN1C(=O)/C(=C\c2cc([N+](=O)[O-])ccc2OCc2ccccc2Cl)SC1=S`, the AC50 at Caspase-6 is 12.9 µM (active). Also, the IC50 in experiment [6] was > 109 µM (not active); against Bcl-2-like protein 1, > 109 µM (not active); at Genome polyprotein, 31.1 µM (active).
For the compound `CCn1c(C)cc(/C=C2/SC(=S)N(CC(=O)O)C2=O)c1C`, the IC50 was > 100 µM (inactive) in experiment [7], 75.5 µM (active) on Aminopeptidase N, 32.9 µM (active) on Prothrombin and 28.6 µM (active) in experiment [10]. For the same compound, the AC50 in experiment [8] was 0.776 µM (active). Further, the EC50 in [9] is > 100 µM (active).
For the compound `S=C(NC1CCCCC1)N1CCOCCOCCN(C(=S)NC2CCCCC2)CCOCC1`, the EC50 on Ion channel NompC is > 29.9 µM (not active); at Mucolipin-3 it was 20.4 µM (not active).
